Experimental data reported in PubChem BioAssay AID588355 (Sanford-Burnham Center for Chemical Genomics, 2011).
Calls of active or inactive are those of the source.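 The calls were made as follows: active = IC50 below 20 µM in the confirmatory dose-response test; inactive = the rest.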

Target: Hexokinase HKDC1 (Homo sapiens) (UniProt Q2TB90)
Test: analog inhibition of human HKDC1 activity – biochemical, set 2, SAR follow-up (AID 588355)
Details: recombinant HKDC1, G6PDH/diaphorase/resazurin coupled fluorescence

Sequence of Hexokinase HKDC1 (Homo sapiens) (Q2TB90 whole entry, looked up): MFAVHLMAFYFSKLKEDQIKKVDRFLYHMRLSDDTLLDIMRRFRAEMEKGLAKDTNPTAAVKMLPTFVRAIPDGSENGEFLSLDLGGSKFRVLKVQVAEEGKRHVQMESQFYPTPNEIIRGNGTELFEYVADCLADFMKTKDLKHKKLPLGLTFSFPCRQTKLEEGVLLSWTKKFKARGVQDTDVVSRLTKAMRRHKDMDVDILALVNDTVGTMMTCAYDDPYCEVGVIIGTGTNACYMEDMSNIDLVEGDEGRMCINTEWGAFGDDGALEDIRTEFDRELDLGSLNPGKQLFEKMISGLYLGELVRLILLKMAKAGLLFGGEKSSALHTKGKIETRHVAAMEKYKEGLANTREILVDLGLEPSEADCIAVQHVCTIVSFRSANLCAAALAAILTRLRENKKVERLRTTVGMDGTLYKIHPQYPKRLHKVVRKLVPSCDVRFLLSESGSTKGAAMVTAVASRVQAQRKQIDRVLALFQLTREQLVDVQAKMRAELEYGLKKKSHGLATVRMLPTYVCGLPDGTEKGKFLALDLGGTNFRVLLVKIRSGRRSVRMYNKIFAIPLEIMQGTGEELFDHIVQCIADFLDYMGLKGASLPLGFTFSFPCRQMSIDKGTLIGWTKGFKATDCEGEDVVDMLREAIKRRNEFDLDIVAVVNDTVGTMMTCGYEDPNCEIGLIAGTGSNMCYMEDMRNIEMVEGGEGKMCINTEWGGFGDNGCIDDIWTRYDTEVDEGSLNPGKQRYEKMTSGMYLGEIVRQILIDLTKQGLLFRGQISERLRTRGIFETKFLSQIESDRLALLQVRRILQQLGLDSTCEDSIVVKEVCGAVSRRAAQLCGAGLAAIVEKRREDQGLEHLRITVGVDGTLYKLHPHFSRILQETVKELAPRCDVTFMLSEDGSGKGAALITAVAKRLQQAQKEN

- IC50: inactive
Compound: COc1cc2c(cc1OC)-c1cc(N3CCc4ccccc4C3)nc(=O)n1CC2
